Data published in article PMC8891364, “Synthesis, and docking studies of novel heterocycles incorporating the indazolylthiazole moiety as antimicrobial and anticancer agents” (Scientific Reports, 2022).
Values after ≈ are worked out from the molar mass of the structure shown.

Tests used:
[1] = system: Streptococcus mutans ATCC 25175; assay: Antimicrobial microtiter-plate MIC assay; format: cell-based; settings: for MIC Streptococcus mutant: 24 h, 37 °C; for MIC: Streptococcus mutans, ATCC25175, 24 h, read-out: MIC Streptococcus mutant
Protocol: (§1) The antimicrobial activity of the newly synthesized compounds (2–9) was evaluated against three model pathogenic microorganisms as follows: Streptococcus mutans ATCC 25175 (Gram-positive bacterium); Pseudomonas aeruginosa ATCC 27853 (Gram-negative bacterium); and Candida albicans ATCC 10231 (fungi-like unicellular organism). After cultivating the three tested pathogens overnight in LB broth, 100 µL of each tested organism (10^6 CFU/mL) was added separately to 100 µL of the serially diluted test compounds (5–80 µg) in a 96-well tissue culture plate and incubated at 37 °C for 24 h. Eventually, microbial growth was measured at 600 nm, and the results are presented in the form of MIC (Table 4). Two antibacterial reference drugs, ampicillin and ciprofloxacin, and one antifungal drug, clotrimazole, were incorporated into the experiments.

[2] = system: Pseudomonas aeruginosa ATCC 27853; assay: Antimicrobial microtiter-plate MIC assay; format: cell-based; settings: 24 h, 37 °C; for MIC: Pseudomonas aeruginosa, ATCC27853
Protocol: as §1

[3] = system: Candida albicans ATCC 10231; assay: Antimicrobial microtiter-plate MIC assay; format: cell-based; settings: for MIC: ATCC10231; for MIC / MIC Candida albicans: 24 h, 37 °C
Protocol: as §1

Pseudomonas aeruginosa = assay: Microbial-biofilm inhibition, tissue-culture plate technique (TCP); format: cell-based; settings: 25 µg/mL, 24 h
Protocol: (§2) The activity of the newly synthesized compounds against microbial biofilm formation was estimated through the tissue-culture plate technique (TCP) as follows: the three above-mentioned pathogens, Streptococcus mutans, Pseudomonas aeruginosa, and Candida albicans were cultivated overnight in LB broth at 37 °C. Afterward, 200 µL of each diluted organism (10^6 CFU/mL) was inoculated separately (in triplicate) into 96-well tissue culture plates and incubated overnight at 37 °C. The free planktonic cells were removed, after the incubation period, by flipping the plate and washing each well three times with phosphate-buffered-saline (PBS), pH 7.1. To each well, 175 µL of fresh LB broth was added along with 25 µL of the tested compound (25 µg/mL final concentrations). The plates were reincubated at 37 °C for another 24 h, washed with PBS buffer pH 7.1 three times, and dried for 5 min at 50 °C. The formed biofilm was stained with crystal violet solution (0.1% w/v) for 5 min. The excess stain was decanted, and the stained biofilm was solubilized with 200 µL of glacial acetic acid (30% v/v), where the developed blue color was measured at 590 nm. The results are expressed as relative inhibition (%) compared to untreated groups (control). Controls were prepared by culturing the three pathogens on LB medium without any tested compounds.

Caco-2 cells = assay: MTT antitumor assay, colon carcinoma cells; format: cell-based; settings: for IC50 Caco-2 / IC50: MTT, 48 h; for SI Caco-2: ratio of IC50 of normal cells (HFB-4) versus IC50 of tumor cells; for IC50: Homo sapiens, Caco-2, 48 h
Protocol: (§3) The human melanocytes (HFB-4) cells, hepatoma (HepG-2) cells, and colon carcinoma (Caco-2) cells were obtained from American Type Culture Collection (ATCC, USA). The cytotoxicity of the newly synthesized compounds (at various concentrations) was determined using the 3-[4, 5-dimethylthiazol]-2, 5-diphenyltetrazolium bromide method (MTT assay)[59] against HFB-4 cells (normal human melanocytes), HepG-2 cells (hepatoma), and Caco-2 cells (colon carcinoma). Normal and cancer cells (1.0 × 10^4) were cultured in sterile 96-well microplates, and incubated for 24 h in DMEM (Lonza, USA) supplemented with 10% fetal bovine serum (Gibco, USA) for HFB-4 and Caco-2 cells or in an RPMI-1640 medium (Lonza, USA) supplemented with 10% FBS for HepG-2 cells. After 24 h of incubation, different doses of the tested synthesized compounds ([…]) were added in triplicate to all cells and incubated for another 48 h in 5% CO2. After washing the cells 3 times with fresh media, to remove dead cells and debris, a solution of MTT (Sigma -Aldrich, 0.5 mg/mL) was added to each well and further incubated for 2–5 h at 37 °C. Afterward, the MTT solution was decanted and 200 µL of DMSO was added. The optical density was measured at 570 nm using a microplate reader (BMG LabTech, Germany), where the cells’ relative viability (%) was estimated using the following equation: viability of cells (%) = [A1 − A0/AU − A0] × 100, where A1 is the absorbance of the test compound, A0 is the absorbance of the blank, and AU is the absorbance of untreated cells (control).
(§4) The antitumor activity of the synthesized compound was determined by calculating the IC50 value (half maximal inhibitory concentration) using Graph Pad Prism 6.0 software. The value of IC50 indicates the derivative concentration that causes 50% cell death, whereas the value of the selectivity index (SI), indicating the ratio of the IC50 value of normal cells versus the IC50 value of tumor cells, was also included as reported by[60],[61].

HepG-2 cells = assay: MTT antitumor assay, hepatoma cells; format: cell-based, human; settings: for IC50 HepG-2 / IC50: MTT, 48 h; for SI HepG-2: ratio of IC50 of normal cells (HFB-4) versus IC50 of tumor cells; for IC50: Homo sapiens, HepG2, 48 h
Protocol: as §3, §4

HFB-4 cells = assay: MTT cytotoxicity assay, normal human melanocytes; format: cell-based; settings: 48 h; for IC50: Melanocyte
Protocol: as §3, §4

Streptococcus mutans = assay: Microbial-biofilm inhibition, tissue-culture plate technique (TCP); format: cell-based; settings: 25 µg/mL, 24 h
Protocol: as §2

Candida albicans = assay: as above; format: cell-based; settings: 24 h, relative to untreated; for inhibition at 25 µg/mL: Candida albicans
Protocol: as §2

β-catenin gene = assay: qRT-PCR gene expression in HepG-2 and Caco-2 cells; format: cell-based, human; settings: IC50 concentrations, 2 days
Protocol: The effects of the potent antitumor derivatives (4, 6, and 8) on the expression level of some tumor regulating genes were elucidated through quantitative real-time PCR (qRT- PCR) and compared to 5-fluorouracil (5-FU) as a reference antitumor drug. Five genes were assessed, including the tumor oncogene (Bcl-2), tumor suppressor gene (p53), matrix metalloproteinase gene (MMP-9), vascular endothelial growth factor gene (VEGF), and beta-catenin protein gene (β-catenin), in HepG-2 and Caco-2 cells, before and after treatment for 2 days with IC50 concentrations for compounds 4, 6, and 8. Following the extraction of total RNA from the tested cells, using the Gene JET RNA Purification Kit (Thermo Scientific, USA), cDNA synthesis was performed according to the cDNA Synthesis Kit protocol (Thermo Scientific, USA). qRT PCR was performed using the SYBR green kit and specific primers (Forward/Reverse) as follows: 5′-[…]-3'/5'-TCG GTCTCCTAAAAGCAGGC-3′ for the Bcl-2 gene, 5′-TAACAGTTCCTGCATG GG CG GC-3′/5′-[…]-3′ for p53, 5'-CTGCGTATTTCCATT CATC-3'/5'-CCTTGGGTCAGGTTTAGAG-3' for the MMP-9 gene, 5'-GGCTTTACT GCTGTACCTCC-3'/5'-CAAATGCTTTCTCCGCTCT-3' for the VEGF gene, and 5'-CATATGCGGCTGCTG TTCTA-3'/5'-CCGAAAG CCGTTTCTTGTAG-3' for the β-catenin gene. The upregulation and/or downregulation of the expression of the tested genes in Caco-2 and HepG-2 cells was determined by using the equation 2^−ΔΔCT[60].

| SMILES | MIC Streptococcus mutant [1] [µg/mL] | MIC [1] [µg/mL] | MIC Pseudomonas aeruginosa [2] [µg/mL] | MIC [2] [µg/mL] | MIC ([3]; Candida albicans) [µg/mL] | biofilm inhibition activity Pseudomonas aeruginosa (in words) (Pseudomonas aeruginosa) | SI Caco-2 (Caco-2 cells) | SI HepG-2 (HepG-2 cells) | inhibition at 25 µg/mL (Candida albicans) [%] | IC50 (Caco-2 cells) [µg/mL] | IC50 (HepG-2 cells) [µg/mL] | IC50 (HFB-4 cells) [µg/mL] | other results |
| --- | --- | --- | --- | --- | --- | --- | --- | --- | --- | --- | --- | --- | --- |
| CC1(C)S[C@@H]2[C@H](NC(=O)[C@H](N)c3ccccc3)C(=O)N2[C@H]1C(=O)O [Ampicillin, ampicillin, reference compound] | 13.5 ± 0.234 (≈ 38.6 µM) | 13.5 (≈ 38.6 µM) |  |  |  |  |  |  |  |  |  |  |  |
| O=C(O)c1cn(C2CC2)c2cc(N3CCNCC3)c(F)cc2c1=O [Ciprofloxacin, ciprofloxacin, reference compound] |  |  | 18.7 ± 0.475 (≈ 56.4 µM) | 18.7 (≈ 56.4 µM) |  |  |  |  |  |  |  |  |  |
| Clc1ccccc1C(c1ccccc1)(c1ccccc1)n1ccnc1 [Clotrimazole, clotrimazole, reference compound] |  |  |  |  | 14.5 ± 1.25 (≈ 42 µM) |  |  |  |  |  |  |  |  |
| NS(=O)(=O)c1ccc(Nc2csc(N3NC4=C(CCCC4)C3c3ccccc3)n2)cc1 (stereo not drawn) [Compound 2] | 49.71 ± 0.5849 (≈ 110 µM) |  | 40.13 ± 2.109 (≈ 88.5 µM) |  |  | high biofilm inhibition activity | 18.28 ± 0.25 | 17.39 ± 0.24 |  |  |  |  | biofilm inhibition Pseudomonas aeruginosa (Pseudomonas aeruginosa; relative to untreated): approximately 58.5%; IC50 Caco-2 (Caco-2 cells): 6.06 ± 1.26 µg/mL (≈ 13.4 µM); IC50 HepG-2 (HepG-2 cells): 6.37 ± 0.36 µg/mL (≈ 14 µM); IC50 HFB-4 (HFB-4 cells): 110.8 ± 1.54 µg/mL (≈ 244 µM); MIC Candida albicans [3]: 52.77 ± 0.7862 µg/mL (≈ 116 µM) |
| N#CC1=C(N)N(c2ccc(S(N)(=O)=O)cc2)c2nc(N3NC4=C(CCCC4)C3c3ccccc3)sc2C1c1ccccc1 (stereo not drawn) [Compound 3, 4-(5-amino-6-cyano-7-phenyl-2-(3-phenyl-1,3,4,5,6,7-hexahydro-2H-indazol-2-yl)thiazolo[4,5-b]pyridin-4(7H)-yl) benzenesulfonamide] | 11.12 ± 0.4232 (≈ 18.3 µM) |  | 18.29 ± 2.114 (≈ 30.1 µM) |  |  | high biofilm inhibition activity | 7.18 ± 0.20 | 7.20 ± 0.20 |  |  |  |  | antibiofilm formation activity Streptococcus mutans (in words) (Streptococcus mutans): had antibiofilm formation activities; biofilm inhibition Streptococcus mutans (Streptococcus mutans; relative to untreated): around 64%; biofilm inhibition Candida albicans (Candida albicans; 25 µg/mL): 69%; IC50 Caco-2 (Caco-2 cells): 7.74 ± 0.81 µg/mL (≈ 12.7 µM); IC50 HepG-2 (HepG-2 cells): 7.72 ± 0.38 µg/mL (≈ 12.7 µM); IC50 HFB-4 (HFB-4 cells): 55.59 ± 1.58 µg/mL (≈ 91.5 µM); MIC Pseudomonas aeruginosa ([2]; listed as derivative 3): 18.29 µg/mL (≈ 30.1 µM); MIC Streptococcus mutant ([1]; listed as derivative 3): 11.2 µg/mL (≈ 18.4 µM); MIC Candida albicans [3]: 40.74 ± 0.5511 µg/mL (≈ 67 µM); MIC Candida albicans ([3]; listed as compound 3): 40.74 µg/mL (≈ 67 µM); antifungal activity as share of clotrimazole activity ([3]; Candida albicans): 36% |
| N#Cc1c(N)sc2sc(N3NC4=C(CCCC4)C3c3ccccc3)nc12 (stereo not drawn) [Compound 5, 5-amino-2-(3-phenyl-1,3,4,5,6,7-hexahydro-2H-indazol-2-yl)thieno[3,2-d]thiazole-6-carbonitrile] |  | 43.52 ± 0.359 (≈ 115 µM) |  | 56.5 ± 2.19 (≈ 149 µM) | 59 ± 1.28 (≈ 156 µM) | high biofilm inhibition activity | 12.87 ± 0.32 | 12.90 ± 0.32 | 68 | 7.59 ± 0.24 (≈ 20 µM) | 7.57 ± 0.36 (≈ 19.9 µM) | 97.7 ± 2.41 (≈ 257 µM) |  |
| O=c1[nH]cc(F)c(=O)[nH]1 [Compound 5-FU, 5-fluorouracil, reference compound] |  |  |  |  |  |  |  |  |  |  |  |  | expression of the β-catenin gene (β-catenin gene): stimulated its expression |
| N=C1CC(=O)Oc2nc(N3NC4=C(CCCC4)C3c3ccccc3)sc21 (stereo not drawn) [Compound 7, 7-imino-2-(3-phenyl-1,3,4,5,6,7-hexahydro-2H-indazol-2-yl)-6,7-dihydro-5H-pyrano [2,3-d]thiazol-5-one] |  | 22.4 ± 0.317 (≈ 61.2 µM) |  | 43.9 ± 2.04 (≈ 120 µM) | 58.2 ± 1.21 (≈ 159 µM) |  | 11.39 ± 0.67 | 10.99 ± 0.65 | 66 | 9.2 ± 0.27 (≈ 25.1 µM) | 9.53 ± 0.32 (≈ 26 µM) | 105 ± 6.2 (≈ 286 µM) |  |
| CCOC(=O)C1=C2N=C(N3NC4=C(CCCC4)C3c3ccccc3)SC2C(=S)S1 (stereo not drawn) [Compound 9, ethyl 2-(3-phenyl-1,3,4,5,6,7-hexahydro-2H-indazol-2-yl)-6-thioxo-6,6a-dihydrothieno [3,4-d]thiazole-4-carboxylate] |  | 48.77 ± 0.246 (≈ 110 µM) |  | 61.5 ± 1.83 (≈ 139 µM) | 46.6 ± 1.2 (≈ 105 µM) |  | 11.04 ± 0.05 | 12.55 ± 0.06 | ~79 | 5.95 ± 0.1 (≈ 13.4 µM) | 5.23 ± 0.25 (≈ 11.8 µM) | 65.65 ± 0.29 (≈ 148 µM) |  |
